One assay relates to B. cereus T spores. The format is cell-based, Bacillus cereus T.
The subject of another assay is spores of Bacillus. Particulars: cited from earlier work.

Consider one substance from patent publication US6846804B2 (priority 2000, dated 2005).

Turning to Sublancin, the “halo (inhibition of spore germination/outgrowth)” value in the assay with B. cereus T spores is on record as “clear halo”. Besides, the “inhibition of outgrowth of spores” value in the assay on spores of Bacillus is reported as “highly active”.
